System: GC
Assay: Seahorse Mito Stress Test
Format: cell-based, human
Details: forskolin 20 μM for 24 hours
Method: FIG. 5A is a line graph showing the oxygen consumption rate from a Seahorse Mito Stress Test assay of GC compared to white adipocytes (WA). Cells were stimulated with forskolin (FSK, 20 uM) for 24 hours prior to treatment, and oligomycin (3 μM), FCCP (3 μM), and antimycin a/rotenone (5 μM) were added at indicated time points. n=9, where n is the number of independent replicates for each cell type/condition. Assay was normalized to total protein content. FIG. 5B is a line graph showing extracellular acidification rate from the assay in FIG. 5A. FIGS. 5C-5E are bar graphs showing basal respiration rate (5C) from the assay maximal respiration (5D) and proton leak (5E) calculated from assay performed in FIG. 5A. FIG. 5F is a bar graph showing the results of a lipolysis assay of ADSCs or GC (BA), treated with forskolin for indicated time period. FIG. 5G is a bar graph showing quantification of thermogenic dye assay of GC with or without forskolin treatment. […]
To perform the assay, ADSCs were plated on XFe24 plates (Agilent) at 5000 cell/cm^2 and grown to confluency. […] Following the assay, cells were lysed using RIPA buffer and protein concentration was determined by Bradford assay. Data was normalized by protein concentration and analyzed in Wave software (Agilent).

Structure (SMILES): C=C[C@@]1(C)CC(=O)[C@]2(O)[C@@]3(C)[C@@H](O)CCC(C)(C)[C@@H]3[C@H](O)[C@H](OC(C)=O)[C@@]2(C)O1 [Forskolin]
- Elevation of uncoupled respiration (proton leak) relative to basal conditions: 64.7%

— patent US20220079993A1, “NON-NATURALLY OCCURRING THERMOGENIC ADIPOCYTES, METHODS OF MAKING, AND METHODS OF USE THEREOF” (University of Georgia Research Foundation, Inc., priority 2019, published 2022)
